This is an account of results in BindingDB's records for doi:10.1073/pnas.0511292103 (Genomics Institute of The Novartis Research Foundation, 2006).

By Ki is commonly meant the dissociation constant of the complex between target and ligand, obtained from inhibition or displacement. A low value points to tighter binding.

Each structure is given as a SMILES string. Bounds are passed on as bounds.

The experiment addresses T1, Ret proto-oncogene (Homo sapiens, UniProt Q9UE13).
T1 sequence (Q9UE13 whole entry): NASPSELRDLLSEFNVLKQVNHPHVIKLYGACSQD

With `Cc1ccc(NC(=O)c2ccc(CN3CCN(C)CC3)cc2)cc1Nc1nccc(-c2cccnc2)n1`, the Ki is > 10 µM. The result for `Cc1cn(-c2cc(NC(=O)c3ccc(C)c(Nc4nccc(-c5cccnc5)n4)c3)cc(C(F)(F)F)c2)cn1` [AMN 107] reads 8.68 µM.
